24 molecules from patent US12577232B2, “N-heterocycle substituted tryptamine derivatives and methods of using” (ENVERIC B[…] INC., priority 2024, dated 2026) can be followed below.

Where “and” joins values, the source holds several entries; their conditions need not be identical. Identical values can stand only once.

Test [1] relates to human model (NT2) neurons. In words: Neuroplastogenicity (neurite outgrowth) assay in NT2 neurons. Set-up: key: a positive (+) designation indicating strong evidence of enhanced neurite outgrowth in drug-treated NT2 cells compared to vehicle-treated cells; a negative (−) designation indicating weak or no evidence of enhanced neurite outgrowth in drug-treated NT2 cells compared to vehicle-treated cells. Type of test: cell-based. As to conditions: 1 or 10 μM, 48 h, visual inspection vs vehicle (0.1% DMSO). From the text: Classic psychedelics such as psilocybin and DMT show potential to treat anxiety and depression, and it has been theorized that such long-term improvements arise because these drugs rapidly and lastingly stimulate neuroplasticity (Calder and Hasler, 2023, Neuropsychopharmacol. 48:104-112). Thus, it was of interest to determine the potential of new compounds as neuroplastogens. Herein, we assess the capacity of various compounds to enhance neurite outgrowth in human model (NT2) neurons.
Human NT2/D1 precursor cells were purchased from the American Type Culture Collection (ATCC, Manassas, VA, USA). Neuronal differentiation was carried out as previously described (Roloff et al., 2015, PloS ONE 10:e0118536) with minor modifications. Firstly, NT2/D1 cells were seeded in T-25 suspension culture flasks (REF #690190, Greiner bio-one, Germany). Each flask contains a minimum of 5×10^6 cells in 10 ml of DMEM/F12 supplemented with 10% fetal bovine serum (FBS), 1% penicillin and streptomycin and 10 μM retinoic acid (RA) medium to start neuronal differentiation. The cells were cultured for 3 days in free floating medium. At the end of the incubation cells were trypsinized and collected by centrifugation, mechanically dispersed, and counted. Counted cells were seeded along Poly D-Lysine (PDL) coated cover slips (12 mm; diameter round, Fisher Scientific; GG-12-PDL) containing a minimum of 0.1×10^5 cells in culture medium without RA. The next day culture medium was replaced with RA medium containing 2% of FBS. These cells cultured for 5 days and two days later, RA medium was changed.
After cells had successfully attached and established along coverslips, the RA medium was replaced with new medium containing 2% FBS and one of the following: (1) test compound (1 or 10 μM), (2) RhoK (ROCK) inhibitor Y-27632 (1 μM) as a positive control (Dihydrochloride; Sigma-Aldrich) (Roloff et al., 2015, PloS ONE 10:e0118536); (3) DMT (1 or 10 μM) as a positive control (Calder and Hasler, 2023, Neuropsychopharmacol. 48:104-112), or (4) vehicle (0.1% DMSO) as a negative control. These cells were incubated for 48 hours under standard conditions (370C, 5% CO2). The cells cultured along coverslips were collected after 48 hours of treatment. The coverslips washed with calcium chloride and magnesium chloride-free phosphate buffered saline (PBS) pH 7.4 (Gibco, #70011-044) and fixed in paraformaldehyde (PFA) 4% in PBS (#J61899, thermoscientific) for 15 min at room temperature (RT) and washed three times with 0.01% of Triton-X100 in PBS (PBST) to remove remaining PFA and to permeabilize the cells. Non-specific binding sites were blocked with 5% of Bovine Serum Albumin (BSA) solution (#9048-46-8, Millipore) in PBST for 60 minutes at RT. Rabbit monoclonal antibody β-III-tubulin (1:5,000, ab52623, Abcam) was applied overnight (O/N) at 4° C. Next day cells are washed three times in PBST, neurons were incubated with secondary antibody Donkey anti-rabbit IgG(H+L) Alexa Fluor™ Plus488 (1:5000 #A32790, Invitrogen) for 1 hour at RT. These coverslips were mounted on Gluoromount-G™, with 4′6-diamidino-2′henylindoldihydrochloride (DAPI) (#E141818, Invitrogen). The immunofluorescence images were analyzed using an Olympus VS110 slide scanner microscope.
B-III-Tubulin immunofluorescence was quantified using ImageJ. Briefly, Corrected Total Cell Fluorescence (CTCF) was acquired for at least ˜8-10 representative cells, where CTCF=Integrated Density−[Area of selected cell*Mean Fluorescence of background]. The CTCF values, referred to herein as ‘signal intensities’, were used to calculate overall means±SD for each treatment. One-Way ANOVA was used to compare treatments. Further, the mean of each treatment was compared with the mean of the control treatment (RA-differentiated cells treated with vehicle, 0.1% DMSO) using Dunnett's multiple comparison procedure. […]

The next test deals with T1, 5-HT2A receptor (Homo sapiens, UniProt P28223).
T1 construct: purchased PerkinElmer ES-313-M400UA
T1 sequence (P28223 whole entry): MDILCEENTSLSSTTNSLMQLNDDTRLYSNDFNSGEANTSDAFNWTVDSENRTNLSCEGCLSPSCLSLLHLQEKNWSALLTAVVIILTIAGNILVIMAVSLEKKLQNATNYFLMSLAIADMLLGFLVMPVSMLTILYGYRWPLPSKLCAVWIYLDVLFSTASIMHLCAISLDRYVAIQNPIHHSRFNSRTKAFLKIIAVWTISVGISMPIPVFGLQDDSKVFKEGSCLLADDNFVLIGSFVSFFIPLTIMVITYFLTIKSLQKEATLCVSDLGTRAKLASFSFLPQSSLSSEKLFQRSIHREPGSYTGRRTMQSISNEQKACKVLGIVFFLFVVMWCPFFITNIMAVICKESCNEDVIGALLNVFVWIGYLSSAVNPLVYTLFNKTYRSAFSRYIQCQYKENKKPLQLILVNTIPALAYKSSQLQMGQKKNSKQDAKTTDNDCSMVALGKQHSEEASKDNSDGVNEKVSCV
In words: 5-HT2A receptor radioligand competition assay (SPA, [3H]ketanserin). Type of test: binding. As to conditions: 1 nM [3H]ketanserin; membranes containing 5-HT2A; read-out: 5-HT2A, Ki. The method, then: Competition assays were performed as for 5-HT1A assays with the following differences. […] Determination of non-specific binding was carried out in the presence of […] of spiperone (S7395-250MG, Sigma-Aldrich). Equilibrium binding constant for ketanserin (Kd) was determined from saturation binding curves using the ‘one-site saturation binding analysis’ method in GraphPad PRISM software (Version 9.2.0).
In general terms: Loss of bound radioactivity is the signal in a displacement assay; it reports binding, not function.

The test system of the next test is C57BL/6 mice. In words: Mouse Head Twitch Response (HTR) assay to assess hallucinogenic potential. Type of test: in vivo. Particulars: 3 mg/kg i.p.; for mean HTR: 0-15 min interval (preliminary screening); for HTR compared with the HTR response for 5-Br-DMT (one-way ANOVA, Dunnett): alpha 0.05. How it is done:
All experiments were approved by the University of Calgary Animal Care and Use Committee in accordance with Canadian Council on Animal Care guidelines. C57BL/6-Elite mixed sex mice were obtained from Charles River (8 weeks old). Until the first experiment, mice were group-housed, then single-housed on a 12:12 h light/dark schedule (lights on at 07:00 hours) with ad libitum access to food and water. Before any behavioral screening, mice were handled and exposed to the testing chamber for at least 5 min each day for three successive days and habituated to the experimental room 1 h before testing. The testing chamber was cleaned with a 70% ethanol solution between experiments to eliminate odor from other mice. Drug compounds (100 mM in DMSO) were diluted in sterile excipient (10% EtOH/15% PEG400 in ddH2O) to 3 mg/kg (preliminary screening) or 0.5, 2, 4, 7, and 10 mg/kg (dose-curve analysis) and administered using intraperitoneal (i.p.) drug injections. […] HTR was analyzed during the 0-to-15-minute window following drug administration. […] Mean HTR between 10 and 5 signifies reduced hallucinogenic potential relative to positive controls.

Turning to “5-bromo-dimethyltryptamine [Compound 5-Br-DMT, reference compound]”, the “Evidence of neurite outgrowth: Yes (+) or No (−)” value (from here on “Evidence … (+) or No (−)”) in test [1] is recorded as “+”.

With `COc1ccc2[nH]cc(CCN(C)C)c2c1` [Compound 5-MeO-DMT, 5-methoxy-dimethyltryptamine, reference compound], the “Evidence … (+) or No (−)” value in test [1] was “+”.

For the molecule `CCN(CC)CCc1c[nH]c2cc(F)ccc12` [Compound 6-F-DET, 6-fluoro-diethyltryptamine, reference compound], the “Evidence … (+) or No (−)” value in test [1] was “+”. Also, the Ki on 5-HT2A receptor was determined as 0.35 µM.

For the molecule `CC(=O)c1[nH]c2cc(F)c(N3CCOCC3)cc2c1CCN(C)C` [Compound (IX)], in the test on C57BL/6 mice, the “mean HTR” value worked out at 9.25 and the “HTR compared with the HTR response for 5-Br-DMT (one-way ANOVA, Dunnett)” value (from here on “HTR compared with the HTR response”) was “not statistically significantly higher”. For the same molecule, in test [1], the “Evidence … (+) or No (−)” value is “−”. The Ki on 5-HT2A receptor is 14.2 µM.

Consider `CN(C)CCc1c[nH]c2ccc(N3CCOCC3)cc12` [Compound (V)], for which, in the test on C57BL/6 mice, the “mean HTR” value is given as 7.8 and the “HTR compared with the HTR response” value is listed as “not statistically significantly higher”. Also, the “Evidence … (+) or No (−)” value in test [1] is given as “+”. For the same molecule, the Ki at 5-HT2A receptor stood at 15 µM.

Consider `CN(C)CCc1c[nH]c2ccc(N3CCC3)cc12` [Compound (VI)], for which, in the test with C57BL/6 mice, the “mean HTR” value worked out at 11.5. The “Evidence … (+) or No (−)” value in test [1] is listed as “+”. Moreover, the Ki on 5-HT2A receptor came to 12 µM.

Consider `CN(C)CCc1c[nH]c2cc(F)c(N3CCOCC3)cc12` [Compound (VII)], for which, in the test with C57BL/6 mice, the “mean HTR” value was 7.75 and the “HTR compared with the HTR response” value is given as “not statistically significantly higher”. For the same molecule, the “Evidence … (+) or No (−)” value in test [1] is “+”. The Ki on 5-HT2A receptor is 63.9 µM.

Turning to `CN(C)CCc1c[nH]c2cc(N3CCOCC3)ccc12` [Compound (VIII)], in the test on C57BL/6 mice, the “mean HTR” value is given as 8.0 and the “HTR compared with the HTR response” value is “not statistically significantly higher”. In test [1], the “Evidence … (+) or No (−)” value was “−”. For the same molecule, the Ki at 5-HT2A receptor worked out at 10.9 µM.

As to `CN(C)CCc1c[nH]c2cc(N3CCCC3)ccc12` [Compound (X)], in the test on C57BL/6 mice, the “mean HTR” value turned out to be 7.25 and the “HTR compared with the HTR response” value was “not statistically significantly higher”. Further, the “Evidence … (+) or No (−)” value in test [1] was “+”. The inhibitory constant (Ki) on 5-HT2A receptor is 7.8 µM.

As to `CN(C)CCc1c[nH]c2cc(N3CCOCC3)c(F)cc12` [Compound (XI)], in the test with C57BL/6 mice, the “mean HTR” value came out at 10.5. Moreover, the “Evidence … (+) or No (−)” value in test [1] was “−”. Also, on 5-HT2A receptor, the Ki is 0.71 µM.

In the case of `CN(C)CCc1c[nH]c2cc(F)cc(N3CCCC3)c12` [Compound (XIII)], in the test with C57BL/6 mice, the “mean HTR” value came to 7.75 and the “HTR compared with the HTR response” value is recorded as “not statistically significantly higher”. Also, in test [1], the “Evidence … (+) or No (−)” value is listed as “+”. Further, the Ki on 5-HT2A receptor came to 2.96 µM.

On to `CN(C)CCc1c[nH]c2cc(N3CCCC3)c(F)cc12` [Compound (XIV)], for which, in the test on C57BL/6 mice, the “mean HTR” value was 9.0 and the “HTR compared with the HTR response” value is “not statistically significantly higher”. Moreover, the “Evidence … (+) or No (−)” value in test [1] is recorded as “+”. In addition, at 5-HT2A receptor, the Ki is 3.1 µM and 3.06 µM.

Turning to `CN(C)CCc1c[nH]c2cc(F)cc(N3CCN(C)CC3)c12` [Compound (XIX)], in the test with C57BL/6 mice, the “mean HTR” value came out at 11.5.

Take `CN(C)CCc1c[nH]c2cc(N3CCOCC3)cc(F)c12` [Compound (XVI)]: in the test with C57BL/6 mice, the “mean HTR” value was 6.75 and the “HTR compared with the HTR response” value was “not statistically significantly higher”. Also, at 5-HT2A receptor, the Ki is 6.2 µM and 6.19 µM.

`CN(CCc1c[nH]c2cc(N3CCOCC3)c(F)cc12)Cc1ccccc1` [Compound (XX)]: in the test on C57BL/6 mice, the “mean HTR” value was determined as 7.25 and the “HTR compared with the HTR response” value is reported as “not statistically significantly higher”. Moreover, the “Evidence … (+) or No (−)” value in test [1] is recorded as “+”. Further, the Ki at 5-HT2A receptor was 25.6 µM.

As to `CN(C)CCc1c[nH]c2cc(N3CCN(C)CC3)cc(F)c12` [Compound (XXI)], in the test with C57BL/6 mice, the “mean HTR” value was 9.25 and the “HTR compared with the HTR response” value is on record as “not statistically significantly higher”.

Regarding `CN(C)CCc1c[nH]c2cc(Cl)cc(N3CCOCC3)c12` [Compound (XXII)], in the test on C57BL/6 mice, the “mean HTR” value stood at 6.5 and the “HTR compared with the HTR response” value is listed as “not statistically significantly higher”.

Regarding `CN(C)CCc1c[nH]c2cc(Cl)cc(N3CCN(C)CC3)c12` [Compound (XXIII)], in the test on C57BL/6 mice, the “mean HTR” value turned out to be 7.25 and the “HTR compared with the HTR response” value is “not statistically significantly higher”. For the same molecule, the “Evidence … (+) or No (−)” value in test [1] is reported as “+”. On 5-HT2A receptor, the Ki worked out at 12.5 µM.

In the case of `CN(C)CCc1c[nH]c2cc(F)c(N3CCN(C)CC3)cc12` [Compound (XXV)], in the test with C57BL/6 mice, the “mean HTR” value was 8.5 and the “HTR compared with the HTR response” value was “not statistically significantly higher”. Besides, in test [1], the “Evidence … (+) or No (−)” value is “−”.

Regarding `CN(C)CCc1c[nH]c2cc(F)c(N3CCN(c4ccccc4)CC3)cc12` [Compound (XXVI)], in the test with C57BL/6 mice, the “mean HTR” value turned out to be 8.25 and the “HTR compared with the HTR response” value is recorded as “not statistically significantly higher”.

For `CCN(CC)CCc1c[nH]c2cc(F)cc(N3CCOCC3)c12` [Compound (XXVII)], in the test on C57BL/6 mice, the “mean HTR” value was determined as 8.0 and the “HTR compared with the HTR response” value was “not statistically significantly higher”. The “Evidence … (+) or No (−)” value in test [1] was “−”. At 5-HT2A receptor, the Ki is 5.4 µM and 5.38 µM.

For the molecule `C[C@@H](N)[C@H]1CC[C@H](C(=O)Nc2ccncc2)CC1` [RhoK, reference compound], in test [1], the “Evidence … (+) or No (−)” value is “+”.

For the molecule `COc1ccc2c3c([nH]c2c1)CCN(C)CC3` [TBG, tabernanthalog, reference compound], in test [1], the “Evidence … (+) or No (−)” value is listed as “+”. In addition, at 5-HT2A receptor, the Ki was determined as 0.8 µM.

For `N[C@@H](Cc1c[nH]c2ccccc12)C(=O)O` [tryptophan, reference compound], at 5-HT2A receptor, the inhibition constant Ki was more than 1000 µM.

For orientation: Ki means the equilibrium dissociation constant of an inhibitor or competing ligand from its target.
